The values that follow come from patent US11246907B2, “Immunosuppressive agents and their use in therapy” (Norwegian University of Science and Technology, priority 2013, dated 2022).

The test system of assay [1] is ERK1 Thr202/Tyr204 and ERK2 Thr185/Tyr187 phosphorylation. In words: Western blot of ERK1/2 phosphorylation in JJN-3 cells. The assay is classed as cell-based. The settings on record: 6 μM ATX-101, 4, 8, 24 h. In general terms: In western blotting, separated proteins are transferred to a membrane and probed.
In assay [2] the test system is IFN-β. In words: IFN-β ELISA on supernatants of stimulated monocytes. The assay is classed as cell-based, human. Particulars: LPS- and polyIC-stimulated monocytes; 4 μM (donor 1: 6 μM), 4 h. The procedure: Measured cytokine levels were normalized to cytokine levels from monocytes stimulated with TLR ligand alone. A two fold or higher increase in cytokine level after TLR stimulation was defined as cytokine induction. […] Isolated monocytes were stimulated with 10 ng/ml LPS and 40 μg/ml polyIC alone and in combination with 4 μM ATX-101 for 4 h. […] DRAQS was used for nuclear staining. Bar, 5 μm.
Peripheral blood mononuclear cells were isolated from A+ buffy coats (Blood Bank, St. Olav's University Hospital, Trondheim, Norway) by density gradient centrifugation (Lymphoprep; Axis-Shield PoC, Oslo, Norway). Mononucleated cells were seeded at 4 million cells/ml in serum-free RPMI 1640 supplemented with glutamine and gentamicin. […]
Monocytes were stimulated as described above. IFN-β was measured in supernatants with the VeriKine-HSTMHuman IFN-β Serum ELISA kit (Pestka Biomedical Laboratories, Piscataway, N.J., USA) according to the manufacturer's instructions with the following adaptions: the amount of supernatant was doubled from 50 to 100 μl; sample buffer was reduced from 50 to 25 μl; and antibody solution was reduced from 50 to 25 μl (reducing assay diluent, keeping same volume of antibody concentrate and diluent additive). The OD was measured at 450 nm.
A general note: In an ELISA, binding on a coated surface is turned into a signal by an enzyme label.

Ends that are not written are not given here.

In the case of Ac-MDRWLVKWKKKRKIRRRRRRRRRRR [ATX-101], in assay [1], the ERK1/2 phosphorylation entry is reported as “transient increase”. Moreover, in assay [2], the IFN-β secretion entry is reported as “decreased the IFN-β secretion”.
